Data set [1] is described as follows: Fraction unbound in mouse brain.
Data set [2] in a line: Fraction unbound in 100% human serum. Format: ADME, cell-free.

What is called fraction unbound is free concentration divided by total concentration. Read a low fraction unbound as little free substance.

As for `CCCC(C)(COC(N)=O)COC(N)=O` [MEPROBAMATE], the fraction unbound in data set [1] came to 0.76.

Regarding `O=C(O)[C@H](Oc1cccc(C(F)(F)F)c1)c1ccc(Cl)cc1` [MBX-102 ACID FORM], the unbound share (fraction unbound) in data set [2] is 0.009.

The values are drawn from ChEMBL document CHEMBL3351754, “Rational use of plasma protein and tissue binding data in drug design” (J Med Chem, 2014).
